The record followed here is EP4436582B1, “2-METHOXYESTRADIOL FOR USE IN THE TREATMENT OF MASTOCYTOSIS” (Gdanski Uniwersytet Medyczny, priority 2021, dated 2023).

Series [1] has as its system ROSA KIT WT line (without KIT gene mutation).
Description: (§1) Used in the research were four mastocyte cell lines: • HMC-1.1 containing the pV560G KIT gene mutation; • HMC-1.2 containing the pG560V and pD816V KIT gene mutations, • ROSA KIT D816V containing the pD816V KIT mutation; • ROSA KIT WT - line containing no KIT mutation [21-23].
(§2) The culture was grown in a cell incubator at the temperature of 37 °C and at 5% CO2 content. […] Used to grow the culture was Iscove's Modified Dulbecco's Medium (Merck Millipore) added with 50 mL of Foetal Bovine Serum (ATCC), and 5 mL of antibiotics (PEN./STREP. 100x, Merck Millipore), while the medium used for the ROSA KIT WT line was additionally supplemented with bone marrow stem cell growth factor rhSCF (R&D Systems, Minneapolis, USA) in the final concentration of 80 ng/ml.
(§3) The cells were grown for 48 hours on a 96-well plate at the concentrations 5 ×10^4 cells per well for the HMC 1.1. and HMC 1.2 lines, respectively, and at the concentration of 7.5 ×10^4 cells per well for the ROSA KIT D816V and ROSA KIT WT lines.
(§4) Then, the working 2-ME solution was diluted in 100 µL of DMSO so as to obtain the final solution concentrations of 1, 5, and 10 in 100 µL of DMSO, respectively.
(§5) The control were cells treated with the corresponding amounts of DMSO with no 2-ME added.
(§6) Following 48 hours into incubation, each well was added 50 µL of the XTT solution (Roche Diagnostics GmbH, Mannheim, Germany) prepared in accordance with the manufacturer's instructions. After 4 hours of cell incubation with XTT the level of absorbance was read using the Cytation 3 Imaging Reader (BioTek, USA) at the wavelength of 560 nm.
Series [2] has the same test system. The experiment in a line: cells. Conditions: 48 h, read-out: inhibited the cell growth by.
Description: as §1, §2, §3, §4, §5, §6
Series [3] relates to HMC 1.1 line (containing the p.V560G mutation). Description: cells. As to conditions: Homo sapiens, 48 h.
Description: as §1
(§7) The culture was grown in a cell incubator at the temperature of 37 °C and at 5% CO2 content, in sterile conditions in a chamber with laminar flow of sterile air. Used was Iscove's Modified Dulbecco's Medium (Merck Millipore) supplemented with 1.2 mM of α-thioglycerol, 50 mL of Foetal Bovine Serum (ATCC), and 5 mL of antibiotics (PEN./STREP. 100x, Merck Millipore)
as §3, §4, §5, §6
The test system is the same in series [4].
Description: as §1, §7, §3, §4, §5, §6

Turning to `COc1cc2c(cc1O)CC[C@@H]1[C@@H]2CC[C@]2(C)[C@@H](O)CC[C@@H]12` [2-ME, 2-methoxyestradiol], the “cytotoxicity to regular MCs” value in series [1] is listed as “did not demonstrate any such activity”. In series [2], the inhibition at 1 µM was 5%, the inhibition at 5 µM amounted to 12% and the inhibition at 10 µM was 14%. In addition, in series [3] (read-out: cell viability, HMC 1.1 line, 5 µM, 48 hours, remaining viability vs DMSO control), the viability at 5 µM is 63%. Besides, the viability at 10 µM in series [3] (read-out: cell viability, HMC 1.1 line, 10 µM, 48 hours, remaining viability vs DMSO control) amounted to 67%. In addition, in series [3] (read-out: reduced proliferation of cells by), the inhibition at 1 µM was 29%. Also, the viability at 1 µM in series [3] (read-out: viability of the cells, HMC 1.1 line, 1 µM, 48 hours, remaining viability vs DMSO control) amounted to 71%. In addition, the “cytotoxicity to neoplastic MCs” value in series [4] was “selectively cytotoxic”.

In general, viability refers to a per cent measure of how many cells are alive, often set against a control.
